Data taken from patent US9388162B2, “Substituted morphinans and the use thereof” (Purdue Pharma L.P., priority 2012, dated 2016).

Columns and labels:
[1] = target: T1, μ-opioid receptors (Homo sapiens (Human), UniProt P35372); assay: μ-opioid receptor radioligand dose-displacement binding assay ([3H]-diprenorphine); details: mean ± SEM, read-out: Binding Affinity Opioid Receptor Ki (nM) [mean ± SEM] μ
Experimental: Radioligand dose-displacement binding assays for μ-opioid receptors used 0.3 nM [^3H]-diprenorphine (Perkin Elmer, Shelton, Conn.), with […] membrane protein/well in a final volume of 500 μl binding buffer (10 mM MgCl2, 1 mM EDTA, 5% DMSO, 50 mM HEPES, pH 7.4). Reactions were carried out in the absence or presence of increasing concentrations of unlabeled naloxone. All reactions were conducted in 96-deep well polypropylene plates for 2 hours at room temperature. Binding reactions were terminated by rapid filtration onto 96-well Unifilter GF/C filter plates (Perkin Elmer, Shelton, Conn.), presoaked in 0.5% polyethylenimine using a 96-well tissue harvester (Perkin Elmer, Shelton, Conn.) followed by performing three filtration washes with 500 μl of ice-cold binding buffer. Filter plates were subsequently dried at 50° C. for 2-3 hours. BetaScint scintillation cocktail (Perkin Elmer, Shelton, Conn.) was added (50 μl/well), and plates were counted using a Packard Top-Count for 1 min/well. The data were analyzed using the one-site competition curve fitting functions in GraphPad PRISM™ v. 3.0 or higher (San Diego, Calif.), or an in-house function for one-site competition curve-fitting.
(§1) The following tables provide results on the efficacy of binding and activity response of exemplified Compounds of the Invention at the μ- and κ-opioid receptors. In TABLE 3, binding affinity of certain Compounds of the Invention to the μ- and κ-opioid receptors was determined as described above. In TABLE 4, activity response of certain Compounds of the Invention to the μ- and κ-opioid receptors was determined as described above for functional assays using HEK-293 cells. In TABLE 5, activity response of certain Compounds of the Invention to the μ- and κ-opioid receptors was determined as described above using U-2 OS cells.

[2] = target: T2, κ opioid receptor (Homo sapiens (Human), UniProt P41145); assay: κ-opioid receptor [35S]GTPγS functional assay, U-2 OS cells; type: biochemical; details: κ GTP
[3] = target: T1, μ-opioid receptors; assay: μ-opioid receptor [35S]GTPγS functional assay, HEK-293 cells; type: biochemical; details: μ GTP
[4] = target: T1, μ-opioid receptors; assay: μ-opioid receptor [35S]GTPγS functional assay, U-2 OS cells; type: biochemical; details: μ GTP
[5] = target: T2, κ opioid receptor; assay: κ-opioid receptor [35S]GTPγS functional assay, HEK-293 cells; type: biochemical; details: κ GTP
Experimental: (§2) Membranes from HEK-293 cells, CHO or U-2 OS cells expressing the recombinant human kappa opioid receptor (κ) were prepared by lysing cells in ice cold hypotonic buffer (2.5 mM MgCl2, 50 mM HEPES, pH 7.4) (10 mL/10 cm dish) followed by homogenization with a tissue grinder/Teflon pestle. Membranes were collected by centrifugation at 30,000×g for 15 min at 4° C. and pellets were resuspended in hypotonic buffer to a final concentration of 1-3 mg/mL. Protein concentrations were determined using the BioRad protein assay reagent with bovine serum albumen as standard. Aliquots of κ receptor membranes were stored at −80° C.
Functional [^35S]GTPγS binding assays were conducted as follows. κ opioid receptor membrane solution was prepared by sequentially adding final concentrations of 0.026 μg/μl κ membrane protein (in-house), 10 μg/mL saponin, 3 μM GDP and 0.20 nM [^35S]GTPγS to binding buffer (100 mM NaCl, 10 mM MgCl2, 20 mM HEPES, pH 7.4) on ice. The prepared membrane solution (190 μl/well) was transferred to 96-shallow well polypropylene plates containing 10 μl of 20× concentrated stock solutions of agonist prepared in DMSO. Plates were incubated for 30 min at a temperature of about 25° C. with shaking. Reactions were terminated by rapid filtration onto 96-well Unifilter GF/B filter plates (Perkin Elmer, Shelton, Conn.) using a 96-well tissue harvester (Packard) and followed by three filtration washes with 200 μl ice-cold binding buffer (10 mM NaH2PO4, 10 mM Na2HPO4, pH 7.4). Filter plates were subsequently dried at 50° C. for 2-3 hours. Fifty μl/well scintillation cocktail (Perkin Elmer, Shelton, Conn.) was added and plates were counted in a Packard Top-Count for 1 min/well.
κ GTP EC50 is the concentration of a compound providing 50% of the maximal response for the compound at a κ receptor.
κ GTP Emax (%) is the maximal effect elicited by a compound relative to the effect elicited by U69,593.
as §1, with “In” for “The following tables provide results on the efficacy of binding and activity response of exemplified Compounds of the Invention at the μ- and κ-opioid receptors. In”

[6] = target: recombinant human kappa opioid receptor (κ) (Homo sapiens (Human), UniProt P41145); assay: κ-opioid receptor radioligand dose displacement binding assay ([3H]-U69,593); details: mean ± SEM, read-out: Binding Affinity Opioid Receptor Ki (nM) [mean ± SEM] κ
Experimental: as §2
Radioligand dose displacement assays used 0.4 nM [^3H]-U69,593 (GE Healthcare, Piscataway, N.J.; 40 Ci/mmole) with 15 μg membrane protein (recombinant κ opioid receptor expressed in HEK 293 cells; in-house prep) in a final volume of 200 μl binding buffer (5% DMSO, 50 mM Trizma base, pH 7.4). Non-specific binding was determined in the presence of 10 μM unlabeled naloxone or U69,593. All reactions were performed in 96-well polypropylene plates for 1 hour at a temperature of about 25° C. Binding reactions were terminated by rapid filtration onto 96-well Unifilter GF/C filter plates (Perkin Elmer, Shelton, Conn.) presoaked in 0.5% polyethylenimine (Sigma). Harvesting was performed using a 96-well tissue harvester (Perkin Elmer, Shelton, Conn.) followed by five filtration washes with 200 μl ice-cold binding buffer. Filter plates were subsequently dried at 50° C. for 1-2 hours. Fifty μl/well scintillation cocktail (Perkin Elmer, Shelton, Conn.) was added and plates were counted in a Packard Top-Count for 1 min/well.
as §1

[7] = read-out: Activity Response κ EC50 (nM) [mean ± SEM]
[8] = relative to U69,593, read-out: Activity Response κ Emax (%)
[9] = read-out: Activity Response μ EC50 (nM) [mean ± SEM]
[10] = relative to DAMGO, read-out: Activity Response μ Emax (%)

CC(C)[C@H]1C[C@H]2[C@H]3Cc4ccc(O)cc4[C@@]2(CCN3CC2CC2)CC1=O [Compound 74, (4bS,7R,8aR,9R)-11-(cyclopropylmethyl)-3-hydroxy-7-isopropyl-8,8a,9,10-tetrahydro-5H-9,4b-(epiminoethano)phenanthren-6(7H)-one]
Ki [1]: 7.42 ± 2.25 nM
EC50 [2, 7]: 1.42 ± 0.15 nM
Emax [2, 8]: 91.3 ± 3.76%
EC50 [3, 9]: 2.31 ± 0.6 nM
Emax [3, 10]: 90.3 ± 3.84%
EC50 [4, 9]: 3.66 ± 0.82 nM
Emax [4, 10]: 46 ± 11%
EC50 [5, 7]: 3.52 ± 1 nM
Emax [5, 8]: 34 ± 5.86%
Ki [6]: 0.33 ± 0.041 nM
